Test results published in patent EP3655424B1, “PEPTIDES MODULATING SPERM MOTILITY BY MODULATING THE PHOSPHOPROTEIN PHOSPHATASE 1 COMPLEX” (University of Wolverhampton, priority 2017, dated 2021).
Like-named read-outs stand apart in the source and are kept apart here.

How the values were obtained:
bovine spermatozoa [1] = assay: Motility assay (Sperm Class Analyzer CASA System), bovine sperm; assay type: cell-based; settings: for concentration-dependent effect on motility parameters: 10 µM versus 20 µM
Experimental: (§1) This study was approved by the Ethics and Internal Review Board of the Hospital Infante D. Pedro E.P.E. (Aveiro, Portugal) and was conducted in accordance with the ethical standards of the Helsinki Declaration. Human semen samples were obtained from a randomized group of donors, by masturbation to a sterile container. All donors signed informed consent allowing the samples to be used for scientific purposes. Basic semen analysis was performed according to World Health Organization (WHO) guidelines. Fresh semen from Holstein Frisian bulls was obtained from LusoGenes, LDA (Aveiro, Portugal). Semen was collected by artificial vagina and assessed by a certified veterinarian. Human and bovine spermatozoa were isolated and washed from seminal plasma by centrifugation (800 g for 5 min, 3 times) using ALLGrade Wash medium (LifeGlobal, Brussels, Belgium). Spermatozoa pellets were resuspended in medium to a final concentration of 20x10^6 cells/0.5 mL and incubated at 37°C with 5 % CO2 until the appropriated treatments were added.
(§2) Peptides (PPP1CC2-CT, TAMRA-PPP1CC2-CT, AKAP4 and AKAP4 M) were added to bovine and human sperm samples in total volume of 500 µl containing approximately 2 x10^7 sperm cells per well. Control samples included sperm cells in medium alone. The influence of bioportides on sperm motility parameters was assessed using the Sperm Class Analyzer CASA System (Microptic S L, Barcelona, Spain) with SCA® v5.4 software. Samples and controls (2 µl) were loaded into individual chambers of Leja Standrat Count 8 chamber slide 20 µm depth (Leja Products B. V., The Netherlands) which were pre-heated at 37 °C. This temperature was maintained while at least 1000 sperm cells/per measurement were evaluated. Each peptide was tested on samples from 3 individual donors and all the conditions were performed in triplicate.
(§3) Bovine and human spermatozoa were exposed to different extracellular peptide concentrations (10 and 20 µM) and motility parameters were assessed at 1 and 2 h. For reference, negative controls were performed in the absence of peptides.

human spermatozoa [2] = assay: Motility assay (Sperm Class Analyzer CASA System), human sperm; assay type: cell-based; settings: for motility parameters / immotile spermatozoa increased (printed: mean decrease) / mean decrease in fast progressive motility / mean decrease in non-progressive motility / mean decrease in slow progressive motility: human spermatozoa; for immotile spermatozoa increased (printed: mean decrease) / mean decrease in fast progressive motility / mean decrease in non-progressive motility / mean decrease in slow progressive motility: 20 µM
Experimental: as §1, §2, §3

bovine spermatozoa [3] = assay: Intracellular accumulation / quantitative translocation of TAMRA-labelled peptides, bovine sperm; assay type: cell-based
Experimental: (§4) Isolated bovine and human spermatozoa (4 x10^7 cells) were suspended and incubated with 10 µM TAMRA-labeled peptides for 1 h at 37 °C in a humidified atmosphere of 95% air/5 % CO2. Cells were then washed three times (800 g for 5 min) in ALLGrade Wash medium (LigeGlobal, Brussels, Belgium). To confirm if the fluorescently labeled peptides were not merely surface associated, the sperm cell population was divided in two and a trypsin incubation was used to remove any surface associated peptides. In summary, half of the cells were set aside (2 x10^7 cells) and fixed in 4 % paraformaldehyde (PFA) for 20 min. The other half was incubated with 1 % (wt/vol) trypsin at 37 °C, collected by centrifugation at 3000 g, washed in ALLGrade Wash medium (LigeGlobal, Brussels, Belgium) and resuspended in 4 % PFA 20 min. Fixed cells from each preparation were spread into coverslips and allowed to air dry. After mounting, slides were assessed by fluorescence microscopy (Imager.Z1, Axio-Cam HRm camera and AxioVision software, Zeiss, Jena, Germany). Translocation efficacies of CPP-mediated intracellular delivery of the peptides sequences were determined by the quantitative uptake analysis of fluorescently labeled moieties^[3]. Isolated bovine and human spermatozoa were incubated with 10 µM TAMRA-labeled peptides for 1 h at 37 °C in a humidified atmosphere of 5 % CO2. Cells were then washed four times with PBS, detached with 1 % (w/v) trypsin at 37 °C, collected by centrifugation at 3000 g and lysed in 300 µl 0.1 M NaOH for 2 h on ice. 250 µl of each sample cell lysate were transferred to a black 96-well plate, and analyzed using an Infinite® 200 PRO (Tecan, Switzerland) (λAbs 544 nm/λEm 590 nm).

human spermatozoa [4] = assay: Intracellular accumulation / quantitative translocation of TAMRA-labelled peptides, human sperm; assay type: cell-based
Experimental: as §4, with “Isolated bovine and human spermatozoa (4 x10^7 cells) were suspended and incubated with 10 µM TAMRA-labeled peptides for 1 h at 37 °C in a humidified atmosphere of 95% air/5 % CO2.” left out, “Isolated bovine and human spermatozoa were incubated with 10 µM TAMRA-labeled peptides for 1 h at 37 °C in a humidified atmosphere of 5 % CO2.” left out

bovine spermatozoa [5] = assay type: cell-based
Experimental: Bovine spermatozoa viability was evaluated using the trypan blue viability test according to manufacturer's guidelines. Human spermatozoa viability was measured using the CellTiter 96® AQueous Non-Radioactive Cell Proliferation Assay (Promega, Madison, USA) according to manufacturer's guidelines.

PPP1CC2-AKAP4 complex = assay: Disruption of PPP1CC2-AKAP4 complex purified from human sperm (Figure 6B); assay type: binding; settings: co-incubation, AKAP4-BM at 10 µM
Experimental: To establish that the detected fluorescence was not attributed to surface-associated peptide, isolated sperm cells were incubated for 1h with 10µM TAMRA-labelled peptide and subsequently treated with 1% (w/v) trypsin to remove any peptide bound to the surface of spermatozoa. Negative controls without the TAMRA-labelled peptides were performed and presented no reactivity. Images are representative from three independent experiments. Lower panel (right): Quantitative analyses of peptide translocation into bovine and human spermatozoa. Bovine and human spermatozoa were incubated with TAMRA-labelled bioportides (10µM) for 1 h at 37°C. Data are expressed as fluorescence (minus negative control). Three independent experiments were performed in quadruplicate. […] Graph bars represent the mean values of three independent experiments performed in triplicate. Error bars 95% CI. […] Graph bars represent the mean values of three independent experiments performed in triplicate. Error bars 95% CI. […] Images are representative from 3 independent experiments. […] A PPP1CC2-AKAP4 complex was purified from human sperm (Lane 1, left). […] 12, a PPP1 inhibitor, was used as a positive control and, as expected, also decreases the interaction (lane 4). […]

[6] = 10 µM, 1h, compared with negative control
[7] = 10 µM, 2h, compared with AKAP4-BM M
[8] = 10 µM, 2h, compared with negative control
[9] = 20 µM, 1h, compared with AKAP4-BM M
[10] = 20 µM, 1h, compared with negative control
[11] = 20 µM, 2h, compared with AKAP4-BM M
[12] = 20 µM, 2h, compared with negative control
[13] = 1h, compared with negative control
[14] = 2h, compared with negative control

For “AKAP4-BM M: mutated homologue (GQQDQDRAAAAAVDVSTLNV) of AKAP4-BM coupled to the Penetratin CPP, used as a control [reference compound]”, the motility parameters (bovine spermatozoa [1]; compared with negative control, two exceptions: fast progressive motility at 1h with 20 µM, immotile spermatozoa with 10 µM at 1h) was “did not lead to significant differences”, the motility parameters (human spermatozoa [2]; compared with negative control, one exception: fast progressive motility at 2h with 20 µM) was “did not lead to significant differences” and the “internalization (microscopic analyses)” value (bovine spermatozoa [3]; bovine spermatozoa, 10 µM TAMRA-labelled peptide, 1 h, 37 °C, trypsin treated) was “internalized less efficiently”. For the same substance, the “intracellular accumulation of red fluorescent (TAMRA) analogues” value (human spermatozoa [4]; human spermatozoa, 5 µM, Figure 6A) was “accumulate within normal healthy human spermatozoa” and the “internalization (microscopic analyses)” value (human spermatozoa [4]; human spermatozoa, 10 µM TAMRA-labelled peptide, 1 h, 37 °C, trypsin treated) was “internalized less efficiently”.
For “GQQDQDRKVICFVDVSTLNVRQIKIWFQNRRMKWKK [AKAP4-BM]”, the “concentration-dependent effect on motility parameters” value (bovine spermatozoa [1]) was “concentration-dependent effect”, the “mean decrease in fast progressive motility” value (bovine spermatozoa [1]; 10 µM, 1h, compared with AKAP4-BM M) was 41.9 ± 20.0% and the “mean decrease in fast progressive motility” value (bovine spermatozoa [1]; [6]) was 49.8 ± 22.5%. For the same substance, the “mean decrease in fast progressive motility” value (bovine spermatozoa [1]; [7]) was 43.9 ± 15.3%, the “mean decrease in slow progressive motility” value (bovine spermatozoa [1]; [7]) was 21.6 ± 64.4% and the “mean decrease in fast progressive motility” value (bovine spermatozoa [1]; [8]) was 50.5 ± 9.7%. The “mean decrease in slow progressive motility” value (bovine spermatozoa [1]; [8]) was 42.4 ± 20.4%, the “mean decrease in fast progressive motility” value (bovine spermatozoa [1]; [9]) was 95.0 ± 6.5% and the “mean decrease in non-progressive motility” value (bovine spermatozoa [1]; [9]) was 63.1 ± 8.3%. For the same substance, the “immotile spermatozoa, mean increase” value (bovine spermatozoa [1]; [10]) was 91.8 ± 25.4%, the “mean decrease in non-progressive motility” value (bovine spermatozoa [1]; [10]) was 50.0 ± 10.9% and the “mean decrease in slow progressive motility” value (bovine spermatozoa [1]; [10]) was 95.3 ± 4.8%. For the same substance, the “mean decrease in fast progressive motility” value (bovine spermatozoa [1]; [11]) was 98,4 ± 2,6%, the “mean decrease in non-progressive motility” value (bovine spermatozoa [1]; [11]) was 63.0 ± 7.5% and the “mean decrease in slow progressive motility” value (bovine spermatozoa [1]; [11]) was 94.1 ± 4.9%. For the same substance, the “immotile spermatozoa, mean increase” value (bovine spermatozoa [1]; [12]) was 183.7 ± 88.4%, the “mean decrease in fast progressive motility” value (bovine spermatozoa [1]; [12]) was 98.6 ± 2.9% and the “mean decrease in slow progressive motility” value (bovine spermatozoa [1]; [12]) was 94.2 ± 4.8%. For the same substance, the progressive motility (human spermatozoa [2]; human sperm, Figure 6C left panel) was “statistically significant decrease in progressive motility”, the “percentage of immotile spermatozoa” value (human spermatozoa [2]; human sperm, Figure 6C middle panel) was “corresponding increase in the percentage of immotile spermatozoa” and the “immotile spermatozoa increased (printed: mean decrease)” value (human spermatozoa [2]; 1h, compared with AKAP4-BM M) was 47.3 ± 19.2%. For the same substance, the “mean decrease in fast progressive motility” value (human spermatozoa [2]; 1h, compared with AKAP4-BM M) was 87.0 ± 4.3%, the “mean decrease in non-progressive motility” value (human spermatozoa [2]; 1h, compared with AKAP4-BM M) was 43.4 ± 24.8% and the “mean decrease in slow progressive motility” value (human spermatozoa [2]; 1h, compared with AKAP4-BM M) was 85.1 ± 5.2%. For the same substance, the “immotile spermatozoa increased (printed: mean decrease)” value (human spermatozoa [2]; [13]) was 63.0 ± 27.8%, the “mean decrease in fast progressive motility” value (human spermatozoa [2]; [13]) was 49.8 ± 22.5% and the “mean decrease in non-progressive motility” value (human spermatozoa [2]; [13]) was 31.0 ± 26.9%. The “mean decrease in slow progressive motility” value (human spermatozoa [2]; [13]) was 87,6 ± 5,2%, the “immotile spermatozoa increased (printed: mean decrease)” value (human spermatozoa [2]; 2h, compared with AKAP4-BM M) was 41.9 ± 14.7% and the “mean decrease in fast progressive motility” value (human spermatozoa [2]; 2h, compared with AKAP4-BM M) was 82.7 ± 20.7%. For the same substance, the “mean decrease in non-progressive motility” value (human spermatozoa [2]; 2h, compared with AKAP4-BM M) was 50.6 ± 21.0%, the “mean decrease in slow progressive motility” value (human spermatozoa [2]; 2h, compared with AKAP4-BM M) was 82.3 ± 11.5% and the “immotile spermatozoa increased (printed: mean decrease)” value (human spermatozoa [2]; [14]) was 74.5 ± 28.3%. The “mean decrease in fast progressive motility” value (human spermatozoa [2]; [14]) was 50.5 ± 9.7%, the “mean decrease in non-progressive motility” value (human spermatozoa [2]; [14]) was 58.6 ± 16.1% and the “mean decrease in slow progressive motility” value (human spermatozoa [2]; [14]) was 85,7 ± 8,7%. The “percentage of viable spermatozoa” value (bovine spermatozoa [5]) was “slight decrease”, the “internalization (microscopic analyses)” value (bovine spermatozoa [3]) was “internalized very efficiently” and the “internalization (microscopic analyses)” value (human spermatozoa [4]) was “internalized very efficiently”. For the same substance, the “interaction between PPP1CC2 and AKAP4” value (PPP1CC2-AKAP4 complex) was “disrupts the PPP1CC2-AKAP4 complex”.
In the case of “RQIKIWFQNRRMKWKKKPNATRPVTPPRVASGLNPSIQKASNYRNNTVLY (H-RQIKIWFQNRRMKWKKKPNATRPVTPPRVASGLNPSIQKASNYRNNTVLY-NH2) [PPP1CC2-CT]”, the “concentration-dependent effect on motility parameters” value (bovine spermatozoa [1]) is reported as “no concentration-dependent effect”, the “immotile spermatozoa, mean increase” value (bovine spermatozoa [1]; [6]) is reported as 72.5 ± 33.6% and the “mean decrease in fast progressive motility” value (bovine spermatozoa [1]; [6]) is reported as 55.9 ± 19.4%. For the same substance, the “mean decrease in slow progressive motility” value (bovine spermatozoa [1]; [6]) was 49.9 ± 41%, the “immotile spermatozoa, mean increase” value (bovine spermatozoa [1]; [8]) was 128.3 ± 85.3% and the “mean decrease in fast progressive motility” value (bovine spermatozoa [1]; [8]) was 53.9 ± 19.9%. The “mean decrease in slow progressive motility” value (bovine spermatozoa [1]; [8]) was 17.4 ± 57%, the “immotile spermatozoa, mean increase” value (bovine spermatozoa [1]; [10]) was 86.2 ± 72.3% and the “mean decrease in fast progressive motility” value (bovine spermatozoa [1]; [10]) was 64.2 ± 8.3%. For the same substance, the “mean decrease in slow progressive motility” value (bovine spermatozoa [1]; [10]) was 31.4 ± 35%, the “mean decrease in fast progressive motility” value (bovine spermatozoa [1]; [12]) was 44.6 ± 9.7% and the non-progressive motility (bovine spermatozoa [1]; 10 and 20 µM, 1 and 2 h, Figure 3) was “No significant alterations”. For the same substance, the motility parameters (human spermatozoa [2]; 10 µM) was “did not induce any significant alterations”, the “mean decrease in fast progressive motility” value (human spermatozoa [2]; [14]) was 34.5 ± 12.3% and the “internalization (microscopic analyses)” value (bovine spermatozoa [3]) was “internalized very efficiently”. For the same substance, the “internalization (microscopic analyses)” value (human spermatozoa [4]) was “internalized very efficiently”.
